Among the data in ChEMBL document CHEMBL5649166, “RIP3 induces apoptosis independent of pronecrotic kinase activity” (Mol Cell, 2014) are residual activity values, retold here.

Each structure is given as a SMILES string.

For assay [1], the target named is Activated CDC42 kinase 1 (Homo sapiens) (UniProt Q07912). The assay is described as follows: Inhibition of human ACK1 using EAIYAAPFAKKK as substrate at 1 uM in presence of 32P-ATP by Hotspot assay relative to control; values are per cent of control.
The target of assay [2] is Serine/threonine-protein kinase PAK 2 (Homo sapiens) (UniProt Q13177). Description: Inhibition of human PAK2 using RRRLSFAEPG as substrate at 1 uM in presence of 32P-ATP by Hotspot assay relative to control; values are per cent of control.
The target of assay [3] is Proto-oncogene tyrosine-protein kinase Src (Homo sapiens) (UniProt P12931). The assay is described as follows: Inhibition of human c-Src using poly[Glu:Tyr] (4:1) as substrate at 1 uM in presence of 32P-ATP by Hotspot assay relative to control; values are per cent of control.
For assay [4], the target named is Casein kinase I isoform alpha (Homo sapiens) (UniProt P48729). The assay is described as follows: Inhibition of human CK1a1 using KRRRAL[pS]VASLPGL as substrate at 1 uM in presence of 32P-ATP by Hotspot assay relative to control; values are per cent of control.
Assay [5] deals with T1, Serine/threonine-protein kinase NLK (Homo sapiens) (UniProt Q9UBE8).
T1 sequence (whole entry): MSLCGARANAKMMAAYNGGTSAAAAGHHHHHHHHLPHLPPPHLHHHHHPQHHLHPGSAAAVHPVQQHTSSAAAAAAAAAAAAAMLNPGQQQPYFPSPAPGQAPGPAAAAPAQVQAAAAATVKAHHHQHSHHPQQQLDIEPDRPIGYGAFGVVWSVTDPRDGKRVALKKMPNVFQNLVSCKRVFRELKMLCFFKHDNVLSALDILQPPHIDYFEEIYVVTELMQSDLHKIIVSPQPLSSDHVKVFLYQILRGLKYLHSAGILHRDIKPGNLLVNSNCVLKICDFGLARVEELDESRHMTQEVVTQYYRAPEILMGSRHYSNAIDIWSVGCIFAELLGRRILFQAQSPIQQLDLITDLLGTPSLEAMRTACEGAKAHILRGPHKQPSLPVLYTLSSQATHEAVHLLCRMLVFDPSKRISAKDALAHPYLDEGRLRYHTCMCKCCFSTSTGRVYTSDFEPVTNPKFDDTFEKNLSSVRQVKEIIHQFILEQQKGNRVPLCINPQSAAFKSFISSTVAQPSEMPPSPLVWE
The assay is described as follows: Inhibition of human NLK using myelin basic protein as substrate at 1 uM in presence of 32P-ATP by Hotspot assay relative to control; values are per cent of control.

The target of assay [6] is Mitogen-activated protein kinase kinase kinase 11 (Homo sapiens) (UniProt Q16584). The assay is described as follows: Inhibition of human MLK3/MAP3K11 using myelin basic protein as substrate at 1 uM in presence of 32P-ATP by Hotspot assay relative to control; values are per cent of control.
In assay [7] the target is Ribosomal protein S6 kinase beta-2 (Homo sapiens) (UniProt Q9UBS0). Description: Inhibition of human p70S6Kb/RPS6KB2 using KKRNRTLTK as substrate at 1 uM in presence of 32P-ATP by Hotspot assay relative to control; values are per cent of control.
Assay [8] addresses BDNF/NT-3 growth factors receptor (Homo sapiens) (UniProt Q16620). Description: Residual activity of human TRKB using poly[Glu:Tyr] (4:1) as substrate at 1 uM in presence of 32P-ATP by Hotspot assay relative to control.
For assay [9], the target named is Myosin light chain kinase 2, skeletal/cardiac muscle (Homo sapiens) (UniProt Q9H1R3). The assay is described as follows: Residual activity of human MLCK2/MYLK2 using KKLNRTLSFAEPG as substrate at 1 uM in presence of 32P-ATP by Hotspot assay relative to control.
The target in assay [10] is Dual specificity protein kinase CLK4 (Homo sapiens) (UniProt Q9HAZ1). Description: Inhibition of human CLK4 using myelin basic protein as substrate at 1 uM in presence of 32P-ATP by Hotspot assay relative to control; values are per cent of control.
The target in assay [11] is RAC-gamma serine/threonine-protein kinase (Homo sapiens) (UniProt Q9Y243). The assay is described as follows: Inhibition of human AKT3 using KGSGSGRPRTSSFAEG as substrate at 1 uM in presence of 32P-ATP by Hotspot assay relative to control; values are per cent of control.
Assay [12] has as its target Calcium/calmodulin-dependent protein kinase type II subunit alpha (Homo sapiens) (UniProt Q9UQM7). Description: Inhibition of human CAMK2a using KKALRRQETVDAL as substrate at 1 uM in presence of 32P-ATP by Hotspot assay relative to control; values are per cent of control.
The target of assay [13] is Serine/threonine-protein kinase 16 (Homo sapiens) (UniProt O75716). The assay is described as follows: Inhibition of human STK16 using myelin basic protein as substrate at 1 uM in presence of 32P-ATP by Hotspot assay relative to control; values are per cent of control.
In assay [14] the target is T2, Tyrosine-protein kinase TXK (Homo sapiens) (UniProt P42681).
T2 sequence (whole entry): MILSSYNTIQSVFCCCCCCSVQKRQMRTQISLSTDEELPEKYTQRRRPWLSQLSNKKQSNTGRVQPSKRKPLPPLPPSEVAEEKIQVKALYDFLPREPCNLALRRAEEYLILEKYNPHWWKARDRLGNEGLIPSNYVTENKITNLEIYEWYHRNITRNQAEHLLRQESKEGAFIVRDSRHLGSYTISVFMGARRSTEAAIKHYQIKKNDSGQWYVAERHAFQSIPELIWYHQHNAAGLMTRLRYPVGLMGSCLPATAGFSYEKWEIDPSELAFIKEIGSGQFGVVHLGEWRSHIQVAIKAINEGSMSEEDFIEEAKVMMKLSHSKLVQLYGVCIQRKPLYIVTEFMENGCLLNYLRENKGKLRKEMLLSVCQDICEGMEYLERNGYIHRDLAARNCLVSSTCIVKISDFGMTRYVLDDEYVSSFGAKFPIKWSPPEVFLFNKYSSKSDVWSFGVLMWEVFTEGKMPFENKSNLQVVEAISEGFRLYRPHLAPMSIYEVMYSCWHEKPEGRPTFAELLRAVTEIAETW
The assay is described as follows: Inhibition of human TXK using EAIYAAPFAKKK as substrate at 1 uM in presence of 32P-ATP by Hotspot assay relative to control; values are per cent of control.

For assay [15], the target named is Platelet-derived growth factor receptor alpha (Homo sapiens) (UniProt P16234). The assay is described as follows: Inhibition of human PDGFRa using poly[Glu:Tyr] (4:1) as substrate at 1 uM in presence of 32P-ATP by Hotspot assay relative to control; values are per cent of control.

Serine/threonine-protein kinase PAK 2 (Homo sapiens), sequence (Q13177 whole entry): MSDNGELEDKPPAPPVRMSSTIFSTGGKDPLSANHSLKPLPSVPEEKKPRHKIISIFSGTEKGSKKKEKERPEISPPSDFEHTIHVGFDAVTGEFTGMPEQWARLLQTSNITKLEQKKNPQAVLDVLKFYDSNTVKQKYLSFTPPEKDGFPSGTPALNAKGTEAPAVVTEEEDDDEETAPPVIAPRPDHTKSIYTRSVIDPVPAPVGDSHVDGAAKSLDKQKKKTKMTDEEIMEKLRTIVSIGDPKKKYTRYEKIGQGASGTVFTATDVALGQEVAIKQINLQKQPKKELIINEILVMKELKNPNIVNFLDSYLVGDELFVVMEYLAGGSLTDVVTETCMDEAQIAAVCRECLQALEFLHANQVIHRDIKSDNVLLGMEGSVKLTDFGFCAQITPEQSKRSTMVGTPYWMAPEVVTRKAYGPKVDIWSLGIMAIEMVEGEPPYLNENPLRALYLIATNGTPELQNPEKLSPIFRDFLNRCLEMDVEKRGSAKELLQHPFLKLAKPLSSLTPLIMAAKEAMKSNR
Myosin light chain kinase 2, skeletal/cardiac muscle (Homo sapiens), sequence (Q9H1R3 whole entry): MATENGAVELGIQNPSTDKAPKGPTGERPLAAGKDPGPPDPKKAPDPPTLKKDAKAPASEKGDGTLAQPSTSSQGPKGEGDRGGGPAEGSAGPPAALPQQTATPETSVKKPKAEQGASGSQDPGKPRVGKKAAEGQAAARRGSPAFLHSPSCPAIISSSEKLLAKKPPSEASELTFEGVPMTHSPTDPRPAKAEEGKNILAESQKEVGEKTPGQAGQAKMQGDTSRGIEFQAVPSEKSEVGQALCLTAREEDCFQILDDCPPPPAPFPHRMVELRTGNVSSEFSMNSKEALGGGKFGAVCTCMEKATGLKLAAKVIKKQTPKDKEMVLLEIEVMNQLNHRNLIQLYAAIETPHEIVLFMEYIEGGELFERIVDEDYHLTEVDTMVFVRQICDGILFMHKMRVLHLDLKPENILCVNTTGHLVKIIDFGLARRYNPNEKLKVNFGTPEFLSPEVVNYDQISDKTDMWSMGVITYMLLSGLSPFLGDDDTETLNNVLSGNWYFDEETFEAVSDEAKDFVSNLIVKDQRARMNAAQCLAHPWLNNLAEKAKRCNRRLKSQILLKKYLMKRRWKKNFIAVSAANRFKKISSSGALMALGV
Serine/threonine-protein kinase 16 (Homo sapiens), sequence (O75716 whole entry): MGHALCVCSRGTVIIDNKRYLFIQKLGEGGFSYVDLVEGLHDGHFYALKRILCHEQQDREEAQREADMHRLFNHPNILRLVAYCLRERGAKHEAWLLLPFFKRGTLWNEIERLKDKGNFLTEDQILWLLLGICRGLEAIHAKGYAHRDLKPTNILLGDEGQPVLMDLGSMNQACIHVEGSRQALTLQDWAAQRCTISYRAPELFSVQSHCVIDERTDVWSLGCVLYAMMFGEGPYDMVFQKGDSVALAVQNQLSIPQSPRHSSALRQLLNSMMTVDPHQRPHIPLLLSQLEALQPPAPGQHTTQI
Dual specificity protein kinase CLK4 (Homo sapiens), sequence (Q9HAZ1 whole entry, looked up): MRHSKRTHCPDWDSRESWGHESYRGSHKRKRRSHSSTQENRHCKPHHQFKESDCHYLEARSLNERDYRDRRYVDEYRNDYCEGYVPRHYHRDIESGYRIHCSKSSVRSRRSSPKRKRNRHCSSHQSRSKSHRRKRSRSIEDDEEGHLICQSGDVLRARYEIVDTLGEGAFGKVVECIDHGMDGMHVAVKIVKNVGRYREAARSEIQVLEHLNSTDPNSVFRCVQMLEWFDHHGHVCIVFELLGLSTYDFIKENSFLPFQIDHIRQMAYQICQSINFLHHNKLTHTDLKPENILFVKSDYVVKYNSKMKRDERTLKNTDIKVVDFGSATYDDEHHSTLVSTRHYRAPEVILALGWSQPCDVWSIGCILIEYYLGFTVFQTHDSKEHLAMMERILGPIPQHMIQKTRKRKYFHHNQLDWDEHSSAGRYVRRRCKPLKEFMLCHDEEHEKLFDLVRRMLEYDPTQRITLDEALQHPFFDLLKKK
Casein kinase I isoform alpha (Homo sapiens), sequence (P48729 2-337 limits assumed): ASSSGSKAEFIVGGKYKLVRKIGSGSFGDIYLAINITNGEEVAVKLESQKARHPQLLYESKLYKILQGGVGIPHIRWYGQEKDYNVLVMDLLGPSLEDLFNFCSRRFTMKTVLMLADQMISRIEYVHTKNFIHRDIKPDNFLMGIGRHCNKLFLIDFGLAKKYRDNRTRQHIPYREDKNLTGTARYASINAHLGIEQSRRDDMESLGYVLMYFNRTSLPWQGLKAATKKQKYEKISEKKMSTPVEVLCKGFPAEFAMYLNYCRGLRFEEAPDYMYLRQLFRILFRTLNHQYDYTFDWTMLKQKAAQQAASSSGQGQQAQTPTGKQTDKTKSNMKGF
BDNF/NT-3 growth factors receptor (Homo sapiens), sequence (Q16620 32-822 limits assumed): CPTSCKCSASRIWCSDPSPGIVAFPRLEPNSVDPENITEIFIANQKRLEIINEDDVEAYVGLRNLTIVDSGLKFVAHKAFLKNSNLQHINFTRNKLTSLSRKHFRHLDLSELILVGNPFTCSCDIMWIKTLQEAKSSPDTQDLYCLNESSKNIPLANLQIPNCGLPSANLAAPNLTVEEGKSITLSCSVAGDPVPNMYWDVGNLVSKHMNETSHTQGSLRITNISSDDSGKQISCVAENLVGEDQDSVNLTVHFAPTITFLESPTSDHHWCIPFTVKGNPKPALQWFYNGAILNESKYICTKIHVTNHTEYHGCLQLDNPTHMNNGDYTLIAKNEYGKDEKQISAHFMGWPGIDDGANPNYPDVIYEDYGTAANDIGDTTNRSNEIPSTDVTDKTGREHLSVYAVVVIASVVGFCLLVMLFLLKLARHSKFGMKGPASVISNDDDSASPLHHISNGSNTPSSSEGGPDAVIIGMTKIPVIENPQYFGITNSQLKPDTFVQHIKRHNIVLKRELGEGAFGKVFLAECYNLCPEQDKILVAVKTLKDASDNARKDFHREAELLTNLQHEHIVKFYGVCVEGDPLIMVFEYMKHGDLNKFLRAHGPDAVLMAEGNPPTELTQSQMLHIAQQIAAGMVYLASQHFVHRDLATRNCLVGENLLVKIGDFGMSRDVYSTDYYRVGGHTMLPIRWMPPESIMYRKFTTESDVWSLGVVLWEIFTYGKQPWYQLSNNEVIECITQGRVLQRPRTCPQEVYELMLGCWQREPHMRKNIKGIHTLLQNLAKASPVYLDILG
Activated CDC42 kinase 1 (Homo sapiens), sequence (Q07912 whole entry, looked up): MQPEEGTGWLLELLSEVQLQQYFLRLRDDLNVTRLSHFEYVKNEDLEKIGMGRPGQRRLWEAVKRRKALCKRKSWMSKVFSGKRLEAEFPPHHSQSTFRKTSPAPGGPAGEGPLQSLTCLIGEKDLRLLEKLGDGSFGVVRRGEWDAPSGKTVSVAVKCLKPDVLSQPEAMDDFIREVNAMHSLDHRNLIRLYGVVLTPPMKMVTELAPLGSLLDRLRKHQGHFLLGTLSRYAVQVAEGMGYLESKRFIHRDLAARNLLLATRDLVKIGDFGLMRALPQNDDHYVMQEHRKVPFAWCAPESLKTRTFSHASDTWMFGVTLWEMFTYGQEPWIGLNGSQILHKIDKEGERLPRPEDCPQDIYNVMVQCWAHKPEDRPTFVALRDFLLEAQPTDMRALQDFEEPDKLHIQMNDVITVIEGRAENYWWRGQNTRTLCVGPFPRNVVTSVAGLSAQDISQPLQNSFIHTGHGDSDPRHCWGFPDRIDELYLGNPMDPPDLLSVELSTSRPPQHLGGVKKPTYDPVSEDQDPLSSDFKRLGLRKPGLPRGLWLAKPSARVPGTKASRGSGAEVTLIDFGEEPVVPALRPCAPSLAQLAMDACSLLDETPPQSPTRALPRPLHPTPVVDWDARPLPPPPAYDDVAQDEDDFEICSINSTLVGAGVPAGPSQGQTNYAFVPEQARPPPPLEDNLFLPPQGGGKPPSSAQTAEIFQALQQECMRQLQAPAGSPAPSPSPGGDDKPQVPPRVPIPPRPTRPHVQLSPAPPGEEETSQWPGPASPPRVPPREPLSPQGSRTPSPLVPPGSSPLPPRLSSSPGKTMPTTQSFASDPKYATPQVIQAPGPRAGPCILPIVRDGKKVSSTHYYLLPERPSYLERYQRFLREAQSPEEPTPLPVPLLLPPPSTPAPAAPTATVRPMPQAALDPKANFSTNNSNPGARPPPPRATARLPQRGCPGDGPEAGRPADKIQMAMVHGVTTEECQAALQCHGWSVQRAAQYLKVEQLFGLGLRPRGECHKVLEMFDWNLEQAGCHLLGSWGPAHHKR
Proto-oncogene tyrosine-protein kinase Src (Homo sapiens), sequence (P12931 2-536 limits assumed): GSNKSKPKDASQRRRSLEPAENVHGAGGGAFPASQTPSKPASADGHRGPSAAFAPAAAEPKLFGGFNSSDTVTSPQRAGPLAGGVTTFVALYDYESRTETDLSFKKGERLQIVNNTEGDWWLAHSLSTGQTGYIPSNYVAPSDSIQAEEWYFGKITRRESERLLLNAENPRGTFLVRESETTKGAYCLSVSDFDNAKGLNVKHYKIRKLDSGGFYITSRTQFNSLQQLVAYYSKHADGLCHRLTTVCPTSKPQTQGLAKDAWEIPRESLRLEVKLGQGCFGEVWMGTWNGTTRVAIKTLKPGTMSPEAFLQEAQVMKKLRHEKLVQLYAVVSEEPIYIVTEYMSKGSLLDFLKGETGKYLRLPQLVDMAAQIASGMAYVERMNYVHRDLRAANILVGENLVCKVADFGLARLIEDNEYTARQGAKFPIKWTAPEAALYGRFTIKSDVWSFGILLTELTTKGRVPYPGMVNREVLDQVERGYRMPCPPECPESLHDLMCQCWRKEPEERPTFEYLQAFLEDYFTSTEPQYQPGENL

On to `CNC(=O)c1ccc2c(c1)ncn2-c1ccc(CC(=O)OC(C)(C)C)cc1`, for which the residual activity came out at 93.4% in assay [1]; 91% in assay [2]; 80% in assay [3]; 98.5% in [4]; 99.7% in assay [5]; 85.4% in [6]. The residual activity in [7] was 92.3%; in assay [8], 97.8%; in assay [9], 88.9%; in assay [10], 93.8%; in assay [11], 98.4%; in [12] it was 94.7%. Besides, the residual activity was found to be 85.4% in [13], 84.2% in assay [14] and 32.7% in assay [15].

As to `Cc1cc(-c2cnc(N)c3c(-c4ccc5scnc5c4)csc23)n(C)n1`, the residual activity in assay [1] amounted to 5.38%; in [2] it was 96.2%; in assay [3], 37.1%; in [4], 88.4%; in assay [5] it was 6.75%; in assay [6] it was 69.5%. In addition, the residual activity stood at 95.1% in assay [7]; 106% in assay [8]; 88.1% in assay [9]; 84.6% in assay [10]; 96.1% in [11]; 104% in [12]. Besides, the results for the residual activity in assay [13], in [14] and in [15] were 97.6%, 33.2% and 9.84%, respectively.

For `CC(C)S(=O)(=O)c1ccc2nccc(Nc3ccc4scnc4c3)c2c1`, the residual activity worked out at 47.8% in [1]; 101% in assay [2]; 28.3% in assay [3]; 105% in [4]; 41.8% in [5]; 81.1% in [6]. In addition, the residual activity was found to be 92.8% in [7]; 86.7% in [8]; 94.8% in assay [9]; 92.2% in [10]; 94.3% in [11]; 100% in [12]. Moreover, the residual activity in [13] worked out at 98.8%; in [14], 47.4%; in assay [15] it was 74.6%.
